Reference: paper PMC6705415 (Nature structural & molecular biology, 2019)
Residue numbers refer to the chain shown, from its start.

Experiments:
[1] = test system: hENT1 Gly154 mutated to serine; conditions: Gly154 to serine mutation in hENT1 versus wild type; cited from earlier work
[2] = target: T1, hENT1 Phe307Ala (hENT1cryst background) (Homo sapiens, UniProt Q99808, DEL243-274/F307A/L168F/N288K/P175A); experiment: Cold dilazep displacement of 3H-NBMPR; format: binding; conditions: Phe307Ala relative to hENT1cryst; displacement of 100 nM 3H-NBMPR
T1 sequence (Q99808 with tags, fused parts or gaps L168F/P175A/DEL243-274/N288K/F307A): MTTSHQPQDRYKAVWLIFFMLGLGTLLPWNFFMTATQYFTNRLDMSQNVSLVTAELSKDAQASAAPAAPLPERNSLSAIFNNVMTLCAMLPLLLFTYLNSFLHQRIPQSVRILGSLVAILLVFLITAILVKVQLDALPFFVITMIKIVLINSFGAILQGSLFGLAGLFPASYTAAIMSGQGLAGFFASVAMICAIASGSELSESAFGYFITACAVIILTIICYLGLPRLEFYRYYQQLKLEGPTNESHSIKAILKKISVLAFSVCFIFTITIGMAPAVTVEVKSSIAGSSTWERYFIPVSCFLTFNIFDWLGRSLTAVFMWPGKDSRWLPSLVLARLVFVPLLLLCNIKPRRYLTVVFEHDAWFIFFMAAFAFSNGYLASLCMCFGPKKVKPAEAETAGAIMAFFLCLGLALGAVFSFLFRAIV

[3] = target: T2, hENT1 Met33Ile (hENT1cryst background) (Homo sapiens, UniProt Q99808, DEL243-274/L168F/M33I/N288K/P175A); experiment: Cold dilazep displacement of 3H-NBMPR; format: binding; conditions: Met33Ile relative to hENT1cryst; displacement of 100 nM 3H-NBMPR
T2 sequence (Q99808 with tags, fused parts or gaps M33I/L168F/P175A/DEL243-274/N288K): T1 sequence (Q99808 with tags, fused parts or gaps L168F/P175A/DEL243-274/N288K/F307A) with M33I, A275F

[4] = target: T3, hENT1 Phe307Tyr (hENT1cryst background) (Homo sapiens, UniProt Q99808, DEL243-274/F307Y/L168F/N288K/P175A); experiment: Cold dilazep displacement of 3H-NBMPR; format: binding; conditions: Phe307Tyr relative to hENT1cryst; displacement of 100 nM 3H-NBMPR
T3 sequence (Q99808 with tags, fused parts or gaps L168F/P175A/DEL243-274/N288K/F307Y): T1 sequence (Q99808 with tags, fused parts or gaps L168F/P175A/DEL243-274/N288K/F307A) with A275Y

SMILES | decrease in NBMPR inhibitory potency [1] | increase in apparent Kd for dilazep [2] | increase in apparent Kd for dilazep [3] | decrease in apparent Kd for dilazep [4]
O=[N+]([O-])c1ccc(CSc2ncnc3c2ncn3[C@@H]2O[C@H](CO)[C@@H](O)[C@H]2O)cc1 [NBMPR, S-(4-Nitrobenzyl)-6-thioinosine] | ~ 2,500 fold | – | – | –
COc1cc(C(=O)OCCCN2CCCN(CCCOC(=O)c3cc(OC)c(OC)c(OC)c3)CC2)cc(OC)c1OC [dilazep] | – | ~ 90 fold | ~ 3 fold | ~ 4 fold
